Where a name gives a salt, the structure may show the parent alone.
Key:
[1] = Dissolution of salts (done on 1 capsule each); format: physicochemical; details: for Dissolution in capsule in acetate buffer pH 4.5 medium at 50 rpm at 10 min (% release as free base) / Dissolution in capsule in acetate buffer pH 4.5 medium at 50 rpm at 30 min (% release as free base): acetate buffer pH 4.5, 50 rpm; for Dissolution in capsule in phosphate buffer pH 7.4 medium at 50 rpm at 10 min (% release as free base) / Dissolution in capsule in phosphate buffer pH 7.4 medium at 50 rpm at 30 min (% release as free base): phosphate buffer pH 7.4, 50 rpm
Source text: Table 28: Dissolution results of salts (Done on 1 capsule each)

[2] = Hygroscopicity studies (water content after storage at 43 %, 75 % and 93 % relative humidity); format: physicochemical; details: for Hygroscopicity 2 weeks 43 % rh: 2 weeks at 43 % rh; for Hygroscopicity 2 weeks 43 % rh / Hygroscopicity 2 weeks 75 % rh / Hygroscopicity 2 weeks 93 % rh: % Equilibrium moisture content, ss = semi solid state of sample, β = solid first changed into liquid and solidified again; for Hygroscopicity 2 weeks 75 % rh: 2 weeks at 75 % rh; for Hygroscopicity 2 weeks 93 % rh: 2 weeks at 93 % rh; for Initial water content: initial sample, before storage
Source text: The salts of the present invention and the free base were studied under three different humidity conditions (43 % relative humidity, 75 % relative humidity, and 93 % relative humidity).

[3] = Evaluation of sitagliptin salts for processability; details: for Appearance: powder
Source text: Table 29: Evaluation of different Sitagliptin salts for processability

[4] = Stability studies (storage at 60 °C in closed bottles or at 40 °C / 75 % RH in an open bottle; related substances by HPLC)

| Molecule | Dissolution in capsule in acetate buffer pH 4.5 medium at 50 rpm at 10 min (% release as free base) [1] [%] | Dissolution in capsule in acetate buffer pH 4.5 medium at 50 rpm at 30 min (% release as free base) [1] [%] | Dissolution in capsule in pH 6.8 buffer at 50 rpm at 10 min (% release as free base) [1] [%] | Dissolution in capsule in pH 6.8 buffer at 50 rpm at 30 min (% Release as free base) [1] [%] | Dissolution in capsule in phosphate buffer pH 7.4 medium at 50 rpm at 10 min (% release as free base) [1] [%] | Dissolution in capsule in phosphate buffer pH 7.4 medium at 50 rpm at 30 min (% release as free base) [1] [%] | Hygroscopicity 2 weeks 43 % rh [2] [%] | Hygroscopicity 2 weeks 75 % rh [2] [%] | Hygroscopicity 2 weeks 93 % rh [2] [%] | Initial water content [2] [%] | Flowability [3] | Poured density, m/V0 [3] [g/ml] | Sticking tendency [3] | Tapped density, m/V1250 [3] [g/mL] | Apparent Volume V0 [3] [mL] | Apparent Volume V10 [3] [mL] | Apparent Volume V500 [3] [mL] | Apparent Volume V1250 [3] [mL] | Dissolution in capsule in water medium at 50 rpm at 10 min (% release as free base) [1] [%] | Dissolution in capsule in water medium at 50 rpm at 30 min (% release as free base) [1] [%] | also measured |
| --- | --- | --- | --- | --- | --- | --- | --- | --- | --- | --- | --- | --- | --- | --- | --- | --- | --- | --- | --- | --- | --- |
| N[C@@H](CC(=O)N1CCn2c(nnc2C(F)(F)F)C1)Cc1cc(F)c(F)cc1F [HCl II] | 93.89 | 100 | 90.13 | 91.21 | 93.63 | 99.67 |  |  |  |  |  |  |  |  |  |  |  |  |  |  |  |
| N[C@@H](CC(=O)N1CCn2c(nnc2C(F)(F)F)C1)Cc1cc(F)c(F)cc1F [O: Sulfate II] |  |  |  |  |  |  | 2.59 | 7.1 | 7.33 | 1.88 | Good | 0.483 | Very low | 0.508 | 40 | 40 | 38 | 38 |  |  | Appearance [3]: White to off-white powder with big, coarse and hard particles.; Related Substances 2 W 40°C/75 % RH open ([4]; 2 weeks, 40°C/75 % RH, open, 20160 min): 0.23%; Related Substances 2 W 60°C closed ([4]; 2 weeks, 60°C, closed, 20160 min): 0.20%; Related Substances 4 w 40°C/75 % RH closed ([4]; 4 weeks, 40°C/75 % RH, closed, 40320 min): 0.24%; Related Substances 4 w 40°C/75 % RH open ([4]; 4 weeks, 40°C/75 % RH, open, 40320 min): 0.36%; Related Substances 4 w 60°C Closed bottle ([4]; 4 weeks, 60°C, closed bottle, 40320 min): 0.31%; Related Substances 12 weeks 40°C/75 % RH closed bottle ([4]; 12 weeks, 40°C/75 % RH, closed bottle, 120960 min): 0.25%; Related Substances 12 weeks 40°C/75 % RH open bottle ([4]; 12 weeks, 40°C/75 % RH, open bottle, 120960 min): 0.46%; Initial Related Substances ([4]; initial, before storage): 0.20% |
| N[C@@H](CC(=O)N1CCn2c(nnc2C(F)(F)F)C1)Cc1cc(F)c(F)cc1F [M: Phosphate] |  |  |  |  |  |  | 3.69 | 3.67 | 3.73 | 3.59 | Good | 0.52 | None | 0.57 | 190 | 185 | 175 | 174 |  |  | Appearance [3]: White to off-white powder, fine powder, few agglomerates. |
| N[C@@H](CC(=O)N1CCn2c(nnc2C(F)(F)F)C1)Cc1cc(F)c(F)cc1F [Phosphate H2O Ref] | 48.08 | 98.48 | 86.65 | 91.12 | 80.81 | 99.18 |  |  |  |  |  |  |  |  |  |  |  |  | 46.63 | 96.30 |  |
| Sitagliptin Malate |  |  | 84.72 | 90.94 |  |  |  |  |  |  |  |  |  |  |  |  |  |  | 90.22 | 98.89 | change during the hygroscopicity studies ([2]; 43 %, 75 % and 93 % relative humidity, confirmed by DSC of samples kept at 93 % relative humidity for 2 weeks): did not show much change |
| Amorphous Sitagliptin Citrate [citrate (amorphous)] |  |  | 62.4 | 89.47 |  |  |  |  |  |  |  |  |  |  |  |  |  |  | 75.89 | 94.23 | solid form conversion on humidity storage ([2]; two weeks storage at 93% relative humidity): partial conversion into the respective crystalline form |
